Laboratory results: patent US10556907B2 (AbbVie Inc., priority 2015, dated 2020)
Where a name gives a salt, the structure may show the parent alone.

How the values were obtained:
Assay in all cases: Method 1: intracellular Ca2+ release (FLIPR, Calcium 5) in recombinant CHO-K1 cells
Type in all cases: cell-based
human S1PR1 receptor = target: T1, human S1PR1 receptor (Homo sapiens, UniProt P21453); details: (1): determined with method 1; read-out: S1P1 EC50
T1 construct: host or cells: CHO-K1
Method in brief: (§1)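 CHO-K1 cells co-expressing the receptor, aequorin and Gq/i5 were loaded with Calcium 5 dye for 1 h at 37 °C, adapted 45 min to RT, then given serially diluted compound in HBSS/20 mmol/L Hepes/2.5 mmol/L probenecid/0.1% BSA, pH 7.4. FLIPR fluorescence was read; EC50 came from nonlinear fits normalized to phospho-fingolimod.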

human S1PR3 receptor = target: T2, human S1PR3 receptor (Homo sapiens, UniProt Q99500); details: (1): determined with method 1; read-out: S1P3 EC50
T2 construct: host or cells: CHO-K1
Method in brief: as §1

human S1PR4 receptor = target: T3, human S1PR4 receptor (Homo sapiens, UniProt O95977); details: (1): determined with method 1; read-out: S1P4 EC50
T3 construct: host or cells: CHO-K1
T3 sequence (O95977 1-384): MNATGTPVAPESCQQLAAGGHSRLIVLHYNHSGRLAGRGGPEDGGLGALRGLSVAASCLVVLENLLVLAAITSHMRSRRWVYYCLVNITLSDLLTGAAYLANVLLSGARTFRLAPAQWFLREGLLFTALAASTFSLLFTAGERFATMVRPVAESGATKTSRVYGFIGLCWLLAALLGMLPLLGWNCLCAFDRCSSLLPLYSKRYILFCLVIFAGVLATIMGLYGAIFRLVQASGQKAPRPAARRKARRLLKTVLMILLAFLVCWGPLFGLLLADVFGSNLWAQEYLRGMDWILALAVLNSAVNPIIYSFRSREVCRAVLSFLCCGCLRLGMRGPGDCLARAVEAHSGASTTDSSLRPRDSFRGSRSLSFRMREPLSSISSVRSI
Method in brief: as §1

human S1PR5 receptor = target: T4, human S1PR5 receptor (Homo sapiens, UniProt Q9H228); details: agonist potency, determined with method 1 (symbols A-D); read-out: S1P5 EC50 range
T4 construct: host or cells: CHO-K1
Method in brief: as §1

T1 sequence (P21453 whole entry): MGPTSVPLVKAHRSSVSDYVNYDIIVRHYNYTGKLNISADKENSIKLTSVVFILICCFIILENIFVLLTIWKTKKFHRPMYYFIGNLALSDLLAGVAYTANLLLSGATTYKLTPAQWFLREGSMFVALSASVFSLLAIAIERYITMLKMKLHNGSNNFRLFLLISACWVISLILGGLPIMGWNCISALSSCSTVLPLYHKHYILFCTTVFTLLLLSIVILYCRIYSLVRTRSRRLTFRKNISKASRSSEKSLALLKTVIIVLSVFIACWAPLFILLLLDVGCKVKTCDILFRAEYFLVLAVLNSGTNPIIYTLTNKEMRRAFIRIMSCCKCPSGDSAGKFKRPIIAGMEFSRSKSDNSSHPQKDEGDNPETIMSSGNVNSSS
T4 sequence (Q9H228 whole entry): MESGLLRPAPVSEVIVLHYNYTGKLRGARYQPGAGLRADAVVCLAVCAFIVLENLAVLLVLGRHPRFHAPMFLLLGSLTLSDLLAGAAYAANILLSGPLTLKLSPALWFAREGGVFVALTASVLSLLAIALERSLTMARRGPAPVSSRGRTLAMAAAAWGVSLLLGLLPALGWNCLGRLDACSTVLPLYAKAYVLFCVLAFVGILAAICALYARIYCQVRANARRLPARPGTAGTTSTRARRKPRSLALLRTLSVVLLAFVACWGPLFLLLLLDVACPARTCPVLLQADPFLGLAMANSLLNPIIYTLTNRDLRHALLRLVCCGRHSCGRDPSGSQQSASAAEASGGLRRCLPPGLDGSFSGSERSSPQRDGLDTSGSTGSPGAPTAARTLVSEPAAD
T2 sequence (Q99500 whole entry): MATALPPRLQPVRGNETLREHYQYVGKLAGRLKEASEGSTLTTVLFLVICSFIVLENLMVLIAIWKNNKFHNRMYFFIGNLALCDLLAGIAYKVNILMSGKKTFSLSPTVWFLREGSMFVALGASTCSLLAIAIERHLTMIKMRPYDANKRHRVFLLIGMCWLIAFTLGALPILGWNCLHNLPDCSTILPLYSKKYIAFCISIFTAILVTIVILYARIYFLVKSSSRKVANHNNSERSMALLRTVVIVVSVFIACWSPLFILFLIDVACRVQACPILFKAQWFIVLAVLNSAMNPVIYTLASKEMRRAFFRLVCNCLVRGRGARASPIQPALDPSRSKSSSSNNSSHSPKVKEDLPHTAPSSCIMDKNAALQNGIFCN

Structure (SMILES) | EC50 (human S1PR1 receptor) [µM] | EC50 (human S1PR3 receptor) [µM] | EC50 (human S1PR4 receptor) [µM] | EC50 (human S1PR5 receptor) [µM]
CC(CCN1CCc2nc(-c3ccc(OCc4ccccc4)cc3)c(F)cc2C1)C(=O)O (stereo not shown) [Compound 180, 4-(2-(4-(benzyloxy)phenyl)-3-fluoro-7,8-dihydro-1,6-naphthyridin-6(5H)-yl)-2-methylbutanoic acid] | < 1 | > 1 | > 1 | < 0.01
CC(CC(=O)O)CN1CCc2nc(-c3ccc(OCc4ccccc4Cl)cc3)ncc2C1 (stereo not shown) [Compound 229, 4-[2-[4-[(2-chlorophenyl)methoxy]phenyl]-7,8-dihydro-5H-pyrido[4,3-d]pyrimidin-6-yl]-3-methyl-butanoic acid 2,2,2-trifluoroacetic acid salt] | < 1 | > 1 | > 1 | < 0.01
O=C(O)C1CC(N2CCc3nc(C#Cc4cccc(Cl)c4)ccc3C2)C1 (stereo not shown) [Compound 128, 3-(2-((3-chlorophenyl)ethynyl)-7,8-dihydro-1,6-naphthyridin-6(5H)-yl)cyclobutanecarboxylic acid] | > 1 | > 1 | > 1 | 1 to 10
O=C(O)CCN1CCc2nc(-c3ccc(OCc4ccc(C(F)F)cc4)cc3)ccc2C1 [Compound 166, 3-(2-(4-((4-difluoromethylbenzyl)oxy)phenyl)-7,8-dihydro-1,6-naphthyridin-6(5H)-yl)propanoic acid] | > 1 | > 1 | > 1 | < 0.01
CC(CN1CCc2nc(-c3ccc(OCc4cccc(F)c4)cc3)ncc2C1)C(=O)O (stereo not shown) [Compound 8, 3-(2-(4-((3-fluorobenzyl)oxy)phenyl)-7,8-dihydropyrido[4,3-d]pyrimidin-6(5H)-yl)-2-methylpropanoic acid] | > 1 | > 1 | > 1 | < 0.01
CCc1cccc(Cl)c1COc1ccc2c(n1)CCN(C1CC(C(=O)O)C1)C2 (stereo not shown) [Compound 118, 3-(2-((2-chloro-6-ethylbenzyl)oxy)-7,8-dihydro-1,6-naphthyridin-6(5H)-yl)cyclobutanecarboxylic acid] | > 1 | > 1 | > 1 | < 0.01
O=C(O)C1(CN2CCc3nc(-c4ccc(OCc5ccc(Cl)cc5)cc4)ncc3C2)CC1 [Compound 215, 1-((2-(4-((4-chlorobenzyl)oxy)phenyl)-7,8-dihydropyrido[4,3-d]pyrimidin-6(5H)-yl)methyl)cyclopropanecarboxylic acid] | > 1 | > 1 | > 1 | 1 to 10
CC(CC(=O)O)CN1CCc2nc(-c3ccc(OCc4ccc(F)cc4)cc3)ncc2C1 (stereo not shown) [Compound 225, 4-(2-(4-((4-fluorobenzyl)oxy)phenyl)-7,8-dihydropyrido[4,3-d]pyrimidin-6(5H)-yl)-3-methylbutanoic acid] | > 1 | > 1 | > 1 | < 0.01
CC(CC(=O)O)N1CCc2nc(-c3ccc(OCc4ccc(Cl)c(Cl)c4)cc3)ncc2C1 (stereo not shown) [Compound 45, 3-(2-(4-((3,4-dichlorobenzyl)oxy)phenyl)-7,8-dihydropyrido[4,3-d]pyrimidin-6(5H)-yl)butanoic acid] | > 1 | > 1 | > 1 | 0.01 to 0.1
O=C(O)CCN1CCc2nc(-c3ccc(OCc4ccc(OC(F)(F)F)cc4)cc3)ncc2C1 [Compound 85, 3-(2-(4-((4-(trifluoromethoxy)benzyl)oxy)phenyl)-7,8-dihydropyrido[4,3-d]pyrimidin-6(5H)-yl)propanoic acid] | > 1 | > 1 | > 1 | < 0.01
O=C(O)CN1CCc2nc(Cc3ccccc3)ncc2C1 [Compound 24, 2-(2-benzyl-7,8-dihydropyrido[4,3-d]pyrimidin-6(5H)-yl)acetic acid] | > 1 | > 1 | > 1 | 1 to 10
CC(CN1CCc2nc(-c3ccc(OCc4ccc(Cl)c(Cl)c4)cc3)ncc2C1)C(=O)O (stereo not shown) [Compound 14, 3-(2-(4-((3,4-dichlorobenzyl)oxy)phenyl)-7,8-dihydropyrido[4,3-d]pyrimidin-6(5H)-yl)-2-methylpropanoic acid] | > 1 | > 1 | > 1 | < 0.01
CC(CCC(=O)O)N1CCc2nc(-c3ccc(OCc4ccc(Cl)cc4)cc3)ncc2C1 (stereo not shown) [Compound 66, 4-(2-(4-((4-chlorobenzyl)oxy)phenyl)-7,8-dihydropyrido[4,3-d]pyrimidin-6(5H)-yl)pentanoic acid] | > 1 | > 1 | > 1 | < 0.01
O=C(O)C1(CN2CCc3nc(-c4ccc(OCc5cccc(Cl)c5)cc4)ncc3C2)CC1 [Compound 1, 1-((2-(4-((3-chlorobenzyl)oxy)phenyl)-7,8-dihydropyrido[4,3-d]pyrimidin-6(5H)-yl)methyl)cyclopropanecarboxylic acid] | > 1 | > 1 | > 1 | 0.1 to 1
O=C(O)CC1CC(N2CCc3nc(-c4ccc(OCc5cccc(Cl)c5)cc4)ncc3C2)C1 (stereo not shown) [Compound 3, 2-(3-(2-(4-((3-chlorobenzyl)oxy)phenyl)-7,8-dihydropyrido[4,3-d]pyrimidin-6(5H)-yl)cyclobutyl)acetic acid] | > 1 | > 1 | > 1 | 0.1 to 1

Second part, the compound after the results:

EC50 (human S1PR1 receptor) [µM] | EC50 (human S1PR3 receptor) [µM] | EC50 (human S1PR4 receptor) [µM] | EC50 (human S1PR5 receptor) [µM] | Structure (SMILES)
> 1 | > 1 | > 1 | < 0.01 | Cc1ccccc1COc1ccc(-c2ncc3c(n2)CCN(C[C@@H](C)CC(=O)O)C3)cc1C [Compound 249]
> 1 | > 1 | < 1 | 0.1 to 1 | O=C(O)CC1(CN2CCc3nc(-c4ccc(OCc5cccc(Cl)c5)cc4)ncc3C2)CC1 [Compound 285, 2-((4(2-(4-((3-chlorobenzyl)oxy)phenyl)-7,8-dihydropyrido[4,3-d]pyrimidin-6(5H)-yl)methyl)cyclopropyl)acetic acid]
> 1 | > 1 | > 1 | 0.01 to 0.1 | Cc1cc(-c2ncc3c(n2)CCN(CC(C)CC(=O)O)C3)ccc1OCc1ccc(Cl)cc1 (stereo not shown) [Compound 258, 4-(2-(4-((4-chlorobenzyl)oxy)-3-methylphenyl)-7,8-dihydropyrido[4,3-d]pyrimidin-6(5H)-yl)-3-methylbutanoic acid]
> 1 | > 1 | > 1 | < 0.01 | Cc1cc(-c2ncc3c(n2)CCN(CC(C)CC(=O)O)C3)ccc1OCc1cccc(Cl)c1 (stereo not shown) [Compound 252, 4-(2-(4-((3-chlorobenzyl)oxy)-3-methylphenyl)-7,8-dihydropyrido[4,3-d]pyrimidin-6(5H)-yl)-3-methylbutanoic acid]
> 1 | > 1 | > 1 | 0.01 to 0.1 | CC(CC(=O)O)CN1CCc2nc(-c3ccc(OCc4ccc(C(C)(C)C)cc4)cc3F)ncc2C1 (stereo not shown) [Compound 283, 4-[2-[4-[(4-tert-butylphenyl)methoxy]-2-fluoro-phenyl]-7,8-dihydro-5H-pyrido[4,3-d]pyrimidin-6-yl]-3-methyl-butanoic acid 2,2,2-trifluoroacetic acid salt]
> 1 | > 1 | > 1 | 0.01 to 0.1 | CC(CC(=O)O)CN1CCc2nc(-c3ccc(OCc4ccc(C(F)(F)F)cc4)cc3F)ncc2C1 (stereo not shown) [Compound 263, 4-[2-[2-fluoro-4-[[4-(trifluoromethyl)phenyl]methoxy]phenyl]-7,8-dihydro-5H-pyrido[4,3-d]pyrimidin-6-yl]-3-methyl-butanoic acid 2,2,2-trifluoroacetic acid salt]
> 1 | > 1 | > 1 | < 0.01 | Cc1ccccc1COc1ccc(-c2ncc3c(n2)CCN(CC(C)CC(=O)O)C3)cc1C (stereo not shown) [Compound 239]
> 1 | > 1 | > 1 | 0.01 to 0.1 | CC(CC(=O)O)CN1CCc2nc(-c3ccc(OCc4ccc(Cl)cc4)cc3)ncc2C1 (stereo not shown) [Compound 259, 4-(2-(4-((4-chlorobenzyl)oxy)phenyl)-7,8-dihydropyrido[4,3-d]pyrimidin-6(5H)-yl)-3-methylbutanoic acid]
< 1 | > 1 | < 1 | < 0.01 | CC(CC(=O)O)CN1CCc2nc(-c3ccc(OCc4cccc(C(F)(F)F)c4)cc3)ncc2C1 (stereo not shown) [Compound 238, 3-methyl-4-(2-(4-((3-(trifluoromethyl)benzyl)oxy)phenyl)-7,8-dihydropyrido[4,3-d]pyrimidin-6(5H)-yl)butanoic acid]
> 1 | > 1 | > 1 | 0.01 to 0.1 | CC(CC(=O)O)CN1CCc2nc(-c3ccc(OCc4ccccc4C(F)(F)F)cc3F)ncc2C1 (stereo not shown) [Compound 260, 4-[2-[2-fluoro-4-[[2-(trifluoromethyl)phenyl]methoxy]phenyl]-7,8-dihydro-5H-pyrido[4,3-d]pyrimidin-6-yl]-3-methyl-butanoic acid 2,2,2-trifluoroacetic acid salt]
